Results taken from patent US7012094B1, “Substituted furans and furanones for the treatment of inflammation” (G.D. Searle, LLC, priority 1994, dated 2006).
pIC50: −log10 of the molar value. Marks after values point to notes of the source that are not given here.

How the values were obtained:
[1] = tested on: carrageenan-induced hyperalgesic foot withdrawal; test: Rat carrageenan-induced analgesia test; assay type: in vivo; conditions: oral, 3 mpk (footnote *); 3 h after carrageenan
Procedure: The analgesia test using rat carrageenan was performed with materials, reagents and procedures essentially as described by Hargreaves, et al., (Pain, 32, 77 (1988)). Male Sprague-Dawley rats were treated as previously described for the Carrageenan Foot Pad Edema test. Three hours after the injection of the carrageenan, the rats were placed in a special plexiglass container with a transparent floor having a high intensity lamp as a radiant heat source, positionable under the floor. After an initial twenty minute period, thermal stimulation was begun on either the injected foot or on the contralateral uninjected foot. A photoelectric cell turned off the lamp and timer when light was interrupted by paw withdrawal. The time until the rat withdraws its foot was then measured. The withdrawal latency in seconds was determined for the control and drug-treated groups, and percent inhibition of the hyperalgesic foot withdrawal determined.

Murine COX II = molecular target: T1, Murine COX II (Mus musculus, UniProt Q05769); test: COX II activity in vitro (PGE2 ELISA, recombinant enzyme); assay type: biochemical; conditions: arachidonic acid 10 μM, read-out: Murine COX II ID50
T1 construct: coding region of either human or murine COX-I or human or murine COX-II was cloned; made in house; host or cells: SF9 insect cells (baculovirus, pVL1393)
T1 sequence (Q05769 18-604): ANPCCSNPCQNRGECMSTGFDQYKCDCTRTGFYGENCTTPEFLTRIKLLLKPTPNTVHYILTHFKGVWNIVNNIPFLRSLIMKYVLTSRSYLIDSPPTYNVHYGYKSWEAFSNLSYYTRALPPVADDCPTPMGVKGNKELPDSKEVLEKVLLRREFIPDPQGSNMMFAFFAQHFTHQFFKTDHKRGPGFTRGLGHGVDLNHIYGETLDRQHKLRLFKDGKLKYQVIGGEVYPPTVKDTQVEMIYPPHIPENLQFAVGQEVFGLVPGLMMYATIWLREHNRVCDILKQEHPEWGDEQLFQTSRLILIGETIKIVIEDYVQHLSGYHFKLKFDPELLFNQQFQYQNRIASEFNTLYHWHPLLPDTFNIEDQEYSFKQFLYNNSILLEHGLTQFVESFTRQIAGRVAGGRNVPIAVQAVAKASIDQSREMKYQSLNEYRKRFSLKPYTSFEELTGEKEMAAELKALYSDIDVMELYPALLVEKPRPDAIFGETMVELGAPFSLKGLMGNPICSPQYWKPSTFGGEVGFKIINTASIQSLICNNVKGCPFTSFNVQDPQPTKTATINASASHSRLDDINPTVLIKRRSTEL
Procedure: A 2.0 kb fragment containing the coding region of either human or murine COX-I or human or murine COX-II was cloned into a BamH1 site of the baculovirus transfer vector pVL1393 to generate the baculovirus transfer vector. Recombinant baculoviruses were isolated by transfecting 4 μg of baculovirus transfer vector DNA into SF9 cells (2×10e8) along with 200 ng of linearized baculovirus plasmid DNA by the calcium phosphate method. […] The homogenate was centrifuged at 10,000×G for 30 minutes, and the resultant supernatant was stored at −80° C. before being assayed for COX activity.
COX activity was assayed as PGE2 formed/μg protein/time using an ELISA to detect the prostaglandin released. CHAPS-solubilized insect cell membranes containing the appropriate COX enzyme were incubated in a potassium phosphate buffer (50 mM, pH 8.0) containing epinephrine, phenol, and heme with the addition of arachidonic acid (10 μM). […] The PGE2 formed was measured by standard ELISA technology (Cayman Chemical).

SMILES | ANALGESIA % Inhibition @ 3 mpk [1] | pIC50 (Murine COX II)
CS(=O)(=O)c1ccc(-c2csc(Br)c2-c2ccc(F)cc2)cc1 [Example 2, 4-(4-Methylsulfonylphenyl)-3-(4-fluorophenyl)-2-bromothiophene] | 0* % | –
Cc1cc(F)ccc1-c1cscc1-c1ccc(S(C)(=O)=O)cc1 [Example 15, 3-(4-Methylsulfonylphenyl)-4-(2-methyl-4-fluorophenyl) thiophene] | – | > 7.00
